ChEMBL document CHEMBL3046389, “Synthesis and biological evaluation of novel hydroquinone dimethyl ethers as potential anticancer and antimicrobial agents” (2013)
Converted amounts (≈) assume the structure as drawn.

Tests used:
Assay type in all cases: functional
Bacillus subtilis = assay: Antimicrobial activity against Bacillus subtilis ATCC 6633 after 48 hr by two-fold serial broth dilution method; conditions: ATCC 6633, 48 h
OVCAR-4 = assay: Anticancer activity against Homo sapiens (human) OVCAR4 cells after 48 hr by SRB assay; conditions: OVCAR-4, 48 h; for CC50: read-out: LC50 (the source's name)
Escherichia coli = assay: Antimicrobial activity against Escherichia coli ATCC 11775 after 48 hr by two-fold serial broth dilution method; conditions: ATCC 11775, 48 h
CCRF-CEM = assay: Growth inhibition of Homo sapiens (human) CCRF-CEM cells at 10 uM after 48 hr by SRB assay; conditions: read-out: GI
K562 = assay: Growth inhibition of Homo sapiens (human) K562 cells at 10 uM after 48 hr by SRB assay; conditions: K562, 48 h, read-out: GI
A498 = assay: Anticancer activity against Homo sapiens (human) A498 cells after 48 hr by SRB assay; conditions: A498, 48 h
MDA-MB-435 = assay: Anticancer activity against Homo sapiens (human) MDA-MB-435 cells after 48 hr by SRB assay; conditions: MDA-MB-435, 48 h; for CC50: read-out: LC50 (the source's name)
A549 = assay: Growth inhibition of Homo sapiens (human) A549/ATCC cells at 10 uM after 48 hr by SRB assay; conditions: A549, 48 h, read-out: GI
RXF 393 = assay: Growth inhibition of Homo sapiens (human) RXF393 cells at 10 uM after 48 hr by SRB assay; conditions: RXF 393, 48 h, read-out: GI
MDA-MB-468 = assay: Anticancer activity against Homo sapiens (human) MDA-MB-468 cells after 48 hr by SRB assay; conditions: MDA-MB-468, 48 h; for CC50: read-out: LC50 (the source's name)
Staphylococcus aureus = assay: Antimicrobial activity against Staphylococcus aureus DSM 1104 after 48 hr by two-fold serial broth dilution method; conditions: DSM 1104, 48 h
CAKI-1 = assay: Anticancer activity against Homo sapiens (human) CAKI-1 cells after 48 hr by SRB assay; conditions: CAKI-1, 48 h; for CC50: read-out: LC50 (the source's name)
PC-3 = assay: Anticancer activity against Homo sapiens (human) PC3 cells after 48 hr by SRB assay; conditions: PC-3, 48 h; for CC50: read-out: LC50 (the source's name)
IGROV-1 = assay: Anticancer activity against Homo sapiens (human) IGROV1 cells after 48 hr by SRB assay; conditions: IGROV-1, 48 h
M14 = assay: Growth inhibition of Homo sapiens (human) M14 cells at 10 uM after 48 hr by SRB assay; conditions: M14, 48 h, read-out: GI
786-0 [1] = assay: Growth inhibition of Homo sapiens (human) 786-0 cells at 10 uM after 48 hr by SRB assay; conditions: 786-0, 48 h, read-out: GI
HCT-116 = assay: Growth inhibition of Homo sapiens (human) HCT116 cells at 10 uM after 48 hr by SRB assay; conditions: HCT-116, 48 h, read-out: GI
MCF7 = assay: Anticancer activity against Homo sapiens (human) MCF7 cells after 48 hr by SRB assay; conditions: MCF7, 48 h; for CC50: read-out: LC50 (the source's name)
ACHN = assay: Growth inhibition of Homo sapiens (human) ACHN cells at 10 uM after 48 hr by SRB assay; conditions: read-out: GI
SNB-19 [2] = assay: Growth inhibition of Homo sapiens (human) SNB19 cells at 10 uM after 48 hr by SRB assay; conditions: SNB-19, 48 h, read-out: GI
BT-549 = assay: Growth inhibition of Homo sapiens (human) BT549 cells at 10 uM after 48 hr by SRB assay; conditions: BT-549, 48 h, read-out: GI
HCT-15 = assay: Growth inhibition of Homo sapiens (human) HCT15 cells at 10 uM after 48 hr by SRB assay; conditions: HCT-15, 48 h, read-out: GI
SNB-75 = assay: Growth inhibition of Homo sapiens (human) SNB75 cells at 10 uM after 48 hr by SRB assay; conditions: SNB-75, 48 h, read-out: GI
HOP-92 = assay: Anticancer activity against Homo sapiens (human) HOP92 cells after 48 hr by SRB assay; conditions: HOP-92, 48 h; for CC50: read-out: LC50 (the source's name)
SK-MEL-2 = assay: Anticancer activity against Homo sapiens (human) SK-MEL-2 cells after 48 hr by SRB assay; conditions: SK-MEL-2, 48 h; for CC50: read-out: LC50 (the source's name)
HL-60(TB) = assay: Growth inhibition of Homo sapiens (human) HL-60(TB) cells at 10 uM after 48 hr by SRB assay; conditions: HL-60, 48 h, read-out: GI
COLO 205 = assay: Anticancer activity against Homo sapiens (human) COLO205 cells after 48 hr by SRB assay; conditions: COLO 205, 48 h; for CC50: read-out: LC50 (the source's name)
SK-MEL-5 = assay: Anticancer activity against Homo sapiens (human) SK-MEL-5 cells after 48 hr by SRB assay; conditions: SK-MEL-5, 48 h
SR = assay: Anticancer activity against Homo sapiens (human) SR cells after 48 hr by SRB assay
786-0 [3] = assay: Anticancer activity against Homo sapiens (human) 786-0 cells after 48 hr by SRB assay; conditions: 786-0, 48 h; for CC50: read-out: LC50 (the source's name)
EKVX = assay: Anticancer activity against Homo sapiens (human) EKVX cells after 48 hr by SRB assay; conditions: for CC50: read-out: LC50 (the source's name)
SNB-19 [4] = assay: Anticancer activity against Homo sapiens (human) SNB19 cells after 48 hr by SRB assay; conditions: SNB-19, 48 h; for CC50: read-out: LC50 (the source's name)
SN12C = assay: Anticancer activity against Homo sapiens (human) SN12C cells after 48 hr by SRB assay
SW-620 = assay: Growth inhibition of Homo sapiens (human) SW620 cells at 10 uM after 48 hr by SRB assay; conditions: SW-620, 48 h, read-out: GI

COc1ccc(OC)c(/C=C/C(=O)N/N=C/c2ccc(Cl)cc2)c1
MBC (Bacillus subtilis): 50 µg/mL (≈ 145 µM)
MIC (Bacillus subtilis): 50 µg/mL (≈ 145 µM)
GI50 (OVCAR-4): 0.439 µM
TGI (OVCAR-4): > 100 µM
CC50 (OVCAR-4): > 100 µM
MBC (Escherichia coli): 100 µg/mL (≈ 290 µM)
MIC (Escherichia coli): 50 µg/mL (≈ 145 µM)
inhibition of growth at 10 µM (CCRF-CEM): 86.3%
inhibition of growth at 10 µM (K562): 86%
GI50 (A498): 0.182 µM
LC50 (A498): > 100 µM
TGI (A498): 27.5 µM
GI50 (MDA-MB-435): 0.0311 µM
TGI (MDA-MB-435): 0.0988 µM
CC50 (MDA-MB-435): > 100 µM
inhibition of growth at 10 µM (A549): 72.2%
inhibition of growth at 10 µM (RXF 393): 120%
GI50 (MDA-MB-468): 0.142 µM
TGI (MDA-MB-468): 0.445 µM
CC50 (MDA-MB-468): > 100 µM
MBC (Staphylococcus aureus): 100 µg/mL (≈ 290 µM)
MIC (Staphylococcus aureus): 100 µg/mL (≈ 290 µM)
GI50 (CAKI-1): 0.0879 µM
TGI (CAKI-1): > 100 µM
CC50 (CAKI-1): > 100 µM
GI50 (PC-3): 0.169 µM
TGI (PC-3): > 100 µM
CC50 (PC-3): > 100 µM
GI50 (IGROV-1): 0.187 µM
LC50 (50% lethal concentration) (IGROV-1): > 100 µM
TGI (IGROV-1): 62.9 µM
inhibition of growth at 10 µM (M14): 134%
inhibition of growth at 10 µM (786-0 [1]): 83.3%
inhibition of growth at 10 µM (HCT-116): 94.3%
GI50 (MCF7): 0.0743 µM
TGI (MCF7): 32.5 µM
CC50 (MCF7): > 100 µM
inhibition of growth at 10 µM (ACHN): 51.6%
inhibition of growth at 10 µM (SNB-19 [2]): 77.4%
inhibition of growth at 10 µM (BT-549): 36.5%
inhibition of growth at 10 µM (HCT-15): 70.6%
inhibition of growth at 10 µM (SNB-75): 56%
GI50 (HOP-92): 4.43 µM
TGI (HOP-92): 58.9 µM
CC50 (HOP-92): > 100 µM
GI50 (SK-MEL-2): 24.7 µM
TGI (SK-MEL-2): > 100 µM
CC50 (SK-MEL-2): > 100 µM
inhibition of growth at 10 µM (HL-60(TB)): 79.9%
GI50 (COLO 205): 0.153 µM
TGI (COLO 205): 0.595 µM
CC50 (COLO 205): 63.9 µM
GI50 (SK-MEL-5): 0.0581 µM
LC50 (SK-MEL-5): > 100 µM
GI50 (SR): 0.039 µM
TGI (SR): 16.4 µM
CC50 (SR; read-out: LC50 (the source's name)): > 100 µM
GI50 (786-0 [3]): 0.326 µM
TGI (786-0 [3]): > 100 µM
CC50 (786-0 [3]): > 100 µM
GI50 (EKVX): 0.816 µM
TGI (EKVX): > 100 µM
CC50 (EKVX): > 100 µM
GI50 (SNB-19 [4]): 0.34 µM
TGI (SNB-19 [4]): > 100 µM
CC50 (SNB-19 [4]): > 100 µM
GI50 (SN12C): 0.982 µM
LC50 (SN12C): > 100 µM
TGI (SN12C): > 100 µM
inhibition of growth at 10 µM (SW-620): 80.1%

COc1ccc(OC)c(/C=C/C(=O)N/N=C/c2ccccc2)c1
MBC (Bacillus subtilis): 100 µg/mL (≈ 322 µM)
MIC (Bacillus subtilis): 50 µg/mL (≈ 161 µM)
GI50 (OVCAR-4): 14.3 µM
TGI (OVCAR-4): > 100 µM
CC50 (OVCAR-4): > 100 µM
MBC (Escherichia coli): 50 µg/mL (≈ 161 µM)
MIC (Escherichia coli): 50 µg/mL (≈ 161 µM)
inhibition of growth at 10 µM (CCRF-CEM): 44.8%
inhibition of growth at 10 µM (K562): 78.8%
GI50 (A498): 12 µM
LC50 (A498): > 100 µM
TGI (A498): > 100 µM
GI50 (MDA-MB-435): 0.283 µM
TGI (MDA-MB-435): 1.98 µM
CC50 (MDA-MB-435): > 100 µM
inhibition of growth at 10 µM (A549): 51.6%
inhibition of growth at 10 µM (RXF 393): 54.6%
GI50 (MDA-MB-468): 1.96 µM
TGI (MDA-MB-468): 6.47 µM
CC50 (MDA-MB-468): 61.6 µM
MBC (Staphylococcus aureus): 100 µg/mL (≈ 322 µM)
MIC (Staphylococcus aureus): 100 µg/mL (≈ 322 µM)
GI50 (CAKI-1): 0.443 µM
TGI (CAKI-1): 6.66 µM
CC50 (CAKI-1): > 100 µM
GI50 (PC-3): 5.86 µM
TGI (PC-3): 52.1 µM
CC50 (PC-3): > 100 µM
GI50 (IGROV-1): 1.51 µM
LC50 (50% lethal concentration) (IGROV-1): > 100 µM
TGI (IGROV-1): > 100 µM
inhibition of growth at 10 µM (M14): 72.2%
inhibition of growth at 10 µM (786-0 [1]): 45.7%
inhibition of growth at 10 µM (HCT-116): 85.8%
GI50 (MCF7): 3.79 µM
TGI (MCF7): > 100 µM
CC50 (MCF7): > 100 µM
inhibition of growth at 10 µM (ACHN): 37.2%
inhibition of growth at 10 µM (SNB-19 [2]): 52.1%
inhibition of growth at 10 µM (BT-549): 39.2%
inhibition of growth at 10 µM (HCT-15): 58%
inhibition of growth at 10 µM (SNB-75): 58.9%
GI50 (HOP-92): 1.56 µM
TGI (HOP-92): 13.3 µM
CC50 (HOP-92): > 100 µM
GI50 (SK-MEL-2): 2.98 µM
TGI (SK-MEL-2): 9.32 µM
CC50 (SK-MEL-2): > 100 µM
inhibition of growth at 10 µM (HL-60(TB)): 53.6%
GI50 (COLO 205): 4.8 µM
TGI (COLO 205): 35.1 µM
CC50 (COLO 205): > 100 µM
GI50 (SK-MEL-5): 2.94 µM
LC50 (SK-MEL-5): > 100 µM
TGI (SK-MEL-5): 14.6 µM
GI50 (786-0 [3]): 7 µM
TGI (786-0 [3]): 72.5 µM
CC50 (786-0 [3]): > 100 µM
GI50 (EKVX): 1.59 µM
TGI (EKVX): 59.5 µM
CC50 (EKVX): > 100 µM
GI50 (SNB-19 [4]): 4.12 µM
TGI (SNB-19 [4]): > 100 µM
CC50 (SNB-19 [4]): > 100 µM
GI50 (SN12C): 4.17 µM
LC50 (SN12C): > 100 µM
TGI (SN12C): 39.9 µM
inhibition of growth at 10 µM (SW-620): 71.3%
